Test results taken from patent US8071568B2, “Nucleoside aryl phosphoramidates for the treatment of RNA-dependent RNA viral infection” (Merck Sharp & Dohme Corp., priority 2007, dated 2011).
Where two headings read alike, the source gives them in different places.

Tested on: Hepatitis C Virus RNA in cultured hepatoma (HuH-7) cells containing a subgenomic HCV Replicon
Assay: Assay for inhibition of HCV RNA replication (replicon assay, in situ ribonuclease protection SPA)
Format: cell-based
[1] = Hepatitis C virus, Huh-7, read-out: Replicon Assay EC50
[2] = Hepatitis C virus, Huh-7, read-out: Replicon Assay EC50, first eluting diastereomer, HuH-7 subgenomic HCV replicon
[3] = Hepatitis C virus, Huh-7, read-out: Replicon Assay EC50, second eluting diastereomer, HuH-7 subgenomic HCV replicon
[4] = mixture of diastereomers tested, HuH-7 subgenomic HCV replicon, read-out: Replicon Assay EC50

Row | Structure (SMILES) | EC50 [1] | EC50 (read-out: Replicon Assay EC50) | EC50 [2] | EC50 [3] | other results
1 | CCCC(=O)OC[C@H](C)NP(=O)(OC[C@H]1O[C@@H](n2ccc(N)nc2=O)[C@](C)(O)[C@@H]1O)Oc1ccccc1 (mixture of isomers) [Example 2, 5′-O-[{[(±)-2-(Butyryloxy)-1-methylethyl]-amino}-(phenoxy)-phosphoryl]-2′-C-methylcytidine] | 2800 nM | 4000 nM | – | – | –
2 | C[C@@H](COC(=O)C(C)(C)C)NP(=O)(OC[C@H]1O[C@@H](n2ccc(N)nc2=O)[C@](C)(O)[C@@H]1O)Oc1ccccc1 (single isomer, unassigned) [Example 1] | 1600 nM | 900 nM | – | – | –
3 | CC[C@H](C)[C@@H](COC(=O)C(C)(C)C)NP(=O)(OC[C@H]1O[C@@H](n2ccc(N)nc2=O)[C@](C)(O)[C@@H]1O)Oc1ccccc1 (single isomer, unassigned) [Example 6] | 2000 nM | 1800 nM | – | – | –
4 | CC(C)C(=O)OC[C@H](Cc1ccccc1)NP(=O)(OC[C@H]1O[C@@H](n2ccc(N)nc2=O)[C@](C)(O)[C@@H]1O)Oc1ccccc1 (single isomer, unassigned) [Example 11] | 500 nM | 900 nM | – | – | –
5 | CC(C)C(=O)O[C@@H](C)CNP(=O)(OC[C@H]1O[C@@H](n2ccc(N)nc2=O)[C@](C)(O)[C@@H]1O)Oc1ccccc1 (single isomer, unassigned) [Example 12] | 2200 nM | 2400 nM | – | – | –
6 | C[C@@]1(O)[C@H](O)[C@@H](COP(=O)(NCCOC(=O)c2ccccc2)Oc2ccccc2)O[C@H]1n1ccc(N)nc1=O (single isomer, unassigned) [Example 16, cytidine, 5′-O-[[[2-(benzoyloxy)ethyl]amino]phenoxyphosphinyl]-2′-C-methyl-] | – | – | 2200 nM | 5000 nM | –
7 | CCC(CC)C(=O)OCCNP(=O)(OC[C@H]1O[C@@H](n2ccc(N)nc2=O)[C@](C)(O)[C@@H]1O)Oc1ccccc1 (single isomer, unassigned) [Example 20, 5′-O-[({2-[(2-ethylbutanoyl)oxy]ethyl}amino)(phenoxy)phosphoryl]-2′-C-methylcytidine] | – | – | 2800 nM | 600 nM | –
8 | C[C@@]1(O)[C@H](O)[C@@H](COP(=O)(NCCOC(=O)C2CCCCCC2)Oc2ccccc2)O[C@H]1n1ccc(N)nc1=O (single isomer, unassigned) [Example 21, 5′-O-[({2-[(cycloheptylcarbonyl)oxy]ethyl}amino)(phenoxy)phosphoryl]-2′-C-methylcytidine] | – | – | 700 nM | 1200 nM | –
9 | CC(C)C(=O)O[C@@H]1CCN(P(=O)(OC[C@H]2O[C@@H](n3ccc(N)nc3=O)[C@](C)(O)[C@@H]2O)Oc2ccccc2)C1 (single isomer, unassigned) [Example 22] | – | – | > 5000 nM | > 5000 nM | –
10 | CC(C)(C)C(=O)OC[C@H](Cc1ccccc1)NP(=O)(OC[C@H]1O[C@@H](n2ccc(N)nc2=O)[C@](C)(O)[C@@H]1O)Oc1ccccc1 (stereo partly drawn) [Example 8, 5′-O-[[[(1S)-2-[(2,-dimethyl-1-oxopropoxy)-1-(phenylmethyl)]-ethyl]amino]-(phenoxy)-phosphinyl]-2′-C-methylcytidine] | – | – | – | – | EC50 [4]: 1000 nM
11 | CC1(C)O[C@@H]2[C@@H](COP(=O)(N[C@H](COC(=O)C(C)(C)C)Cc3ccccc3)Oc3ccccc3)O[C@@H](n3ccc(N)nc3=O)[C@]2(C)O1 (stereo partly drawn) [Example 14, cytidine, 5′-O-[[[(1S)-2-(2,2-dimethyl-1-oxopropoxy)-1-(phenylmethyl)ethyl]amino]phenoxyphosphinyl]-2′-C-methyl-2′,3′-O-(1-methylethylidene)-] | – | – | – | – | EC50 (first eluting diastereomer, HuH-7 subgenomic HCV replicon, read-out: Replicon Assay EC50): > 5000 nM; EC50 (second eluting diastereomer, HuH-7 subgenomic HCV replicon, read-out: Replicon Assay EC50): > 5000 nM
12 | CCCCC(COC(=O)C(C)(C)C)NP(=O)(OCC1OC(n2ccc(N)nc2=O)C2(C)OC(C)(C)OC12)Oc1ccccc1 [Example 15, cytidine, 5′-O-[[[(1S)-1-[(2,2-dimethyl-1-oxopropoxy)methyl]pentyl]amino]phenoxyphosphinyl]-2′-C-methyl-2′,3′-O-(1-methylethylidene)-] | – | – | – | – | EC50 [4]: > 10000 nM
